Assay results reported in patent publication US8729047B2, “Compositions for inhibiting redox-sensitive GTPases” (Board of Regents, The University of Texas System, priority 2010, dated 2014).

What was measured:
HME-RhoC cells = assay: Apoptosis / cell population of cells treated with thiopurines; type: cell-based, human; settings: for cells that underwent apoptosis within a day: thiopurine 1 μM
From the text: RhoC-overexpressed mammary epithelium (HME-RhoC) cells were used to examine the effect of 6-TG and/or a redox agent on RhoC.

Rac1 [1] = target: T1, Rac1 (Homo sapiens, UniProt P63000); assay: Rac1 expression (Western) and Rac1 G-LISA activity in activated T cells; type: cell-based
Protocol: (§1) FIG. 26. Determination of Rac1 activity and ERM phosphorylation. […] (A) The soluble cell extract was then used to perform Western blot analyses for Rac1 and the ERM. This cell extract also was used for the co-IP-based ESI-MS analysis (FIG. 8). (B) A Rac1 activity assay was colorimetrically determined using cell extract; the assay was performed with the Rac1 G-LISA Activation Assay Kit (Cat. No. BK125) (Denver, Colo.). To examine the level of phosphorylation of the ERM, cells were cultured in complete RPMI 1640 medium with ˜50 μCi of ^32P/mL before initiating stimulation of T cells. The collected cell extract was nutated with resin coupled with a human ERM (231C2a) antibody (Santa Cruz Biotechnology, CA) at 4° C. for 5 h. […] The immunoprecipitates were then analyzed by SDS-PAGE and autoradiographed. […] The data represented in the figure represent the mean values of triplicate measurements, and the vertical error bar indicates standard errors.

ERM = ERM phosphorylation in activated T cells; type: cell-based
Protocol: as §1

RhoA = target: T2, RhoA (Rattus norvegicus, UniProt P61589); assay: Co-IP ESI-MS of thioguanine nucleotide disulfide adduct in A7r5 cells; type: cell-based; settings: for thioguanine nucleotide-RhoA disulfide adduct (Cys20): FIGS. 21, 22
T2 construct: endogenous in cells; host or cells: A7r5 cells (rat aortic vascular smooth muscle)
Protocol: (§2) FIG. 21. Detection of 6-TGNP adduct from A7r5 and T cells. Experimental procedures using A7r5 (A and B) and T (C and D) cells, respectively, were identical to those of the experiments described in FIG. 19 and previous studies (Tiede et al. J. Clin. Invest. 111, 1133-1145 (2003); and Poppe et al. J. Immunol. 176, 640-651 (2006)). The cell extract was incubated with a monoclonal RhoA antibody (A and B) or a Rac1 antibody (C and D) coupled with resin. Resin was collected by centrifugation (5,000×g, 10 min), which was suspended in 50% methanol:0.1% formic acid. The protein portion was separated by brief centrifugation (3,000×g for 5 min), resuspended in a buffer containing 10 mM EDTA and 5 mM phosphate (pH 7.5), digested with trypsin for 10 h, and analyzed with MS. The MS peak at 1476.6 Da represents peptide-6-TGDP adduct; TC^20LLIVFSK-6-TGDP.
FIG. 22. Detection of 8-TGNP adduct from A7r5 cells. […] The indicated MS peak at 1476.6 Da represents peptide-8-TGDP adduct; TC^20LLIVFSK-8-TGDP (SEQ ID NO:4). The molecular weight of the peptide-8-TGDP adduct is exactly the same as that of the peptide-6-TGDP adduct. A and B, respectively, represent any of samples taken from a cell culture with and without treatment with 8-TG.

Rac1 [2] = target: T1, Rac1; assay: Co-IP ESI-MS of thioguanine nucleotide disulfide adduct in T cells; type: cell-based; design: endogenous in cells; settings: for thioguanine nucleotide-Rac1 disulfide adduct: activated T cells, FIGS. 21, 27
Protocol: as §2
FIG. 27. Detection of 8-TGNP adduct from T and A7r5 cells. […] The indicated MS peak at 1476.6 Da represents peptide-8-TGDP adduct; TC^20LLIVFSK-8-TGDP (SEQ ID NO:4). The molecular weight of the peptide-8-TGDP adduct is exactly the same as that of the peptide-6-TGDP adduct.

T2 sequence (P61589 whole entry): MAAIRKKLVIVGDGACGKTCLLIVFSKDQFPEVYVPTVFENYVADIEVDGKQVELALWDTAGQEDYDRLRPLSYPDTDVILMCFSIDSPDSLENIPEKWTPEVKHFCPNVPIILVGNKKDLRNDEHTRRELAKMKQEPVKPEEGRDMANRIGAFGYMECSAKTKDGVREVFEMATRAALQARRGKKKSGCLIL

| Structure (SMILES) | cells persistently resisting additional treatments (of the initial cells) (HME-RhoC cells; 6-TG 1 μM) | cells that underwent apoptosis within a day (HME-RhoC cells) | Rac1 inactivation (Rac1 [1]; 6-TG 1 μM, within 3 days, FIG. 26B) | fraction of inactive Rac1 (Rac1 [1]; 6-TG plus DETA/NO 10 μM) | cellular expression level of Rac1 and ERM (Rac1 [1]; presence or absence of 6-TG, FIG. 26A) | blockage of ERM dephosphorylation (ERM; 6-TG plus DETA/NO 10 μM) | ERM phosphorylation (ERM; 6-TG, after three days, FIG. 26B) | thioguanine nucleotide-RhoA disulfide adduct (Cys20) (RhoA) | MS peak representing 6-TGNP-RhoA adduct (RhoA; both 6-TG and NO, intensity not truly quantitative) | MS peak representing 6-TGNP-Rac1 adduct (Rac1 [2]; T cells, both 6-TG and NO, intensity not truly quantitative) | thioguanine nucleotide-Rac1 disulfide adduct (Rac1 [2]) | delayed minor apoptosis over the course of a week of treatment (HME-RhoC cells; 8-TG 1 μM) [%] | screen of 6-TP isomers on Rac1 activity (Rac1 [1]; not shown) | screen of 6-TP isomers on ERM dephosphorylation (ERM; not shown) |
| --- | --- | --- | --- | --- | --- | --- | --- | --- | --- | --- | --- | --- | --- | --- |
| Nc1nc2nc[nH]c2c(=S)[nH]1 [6-TG, 6-thioguanine] | 20%-25% | ~80% | significant portion of Rac1 was inactivated | synergistically increases the fraction of inactive Rac1 | not changed | increases the blockage of the dephosphorylated form of ERM | large portion of ERM in T cells was observed to have been phosphorylated | biologically inactive 6-TGNP-RhoA disulfide adduct | increased | increased | has been identified |  |  |  |
| Nc1nc2[nH]c(S)nc2c(=O)[nH]1 [8-TG, 2-amino-8-mercapto-1H-purin-6(9H)-one] |  | less than 5% |  |  |  |  |  | biologically inactive 8-TGNPRhoA disulfide adduct |  |  | biologically inactive 8-TGNP-Rac1 disulfide adduct | ~5 | most effectively inhibits Rac1 activity | blocks the dephosphorylation of ERM |
